Relative viability data for 5 cell lines are collected here from the supplement of paper PMC10307832.

Common to all, as to test: relative viability (nuclei count vs DMSO), 5 days (fraction); higher = more cells survive
Compound in experiment [1]: C1=CC=C(C(=C1)C2=CC=C(C=C2)C3=CSC4=C3C(=C(C(=O)N4)C#N)O)O + Cc1nc(NC(=O)N2CCC[C@H]2C(N)=O)sc1-c1ccnc(C(C)(C)C(F)(F)F)c1 [Alpelisib] (partner 2 µM)
Put shortly:
(§1)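 Five library-drug doses in √10 steps were combined with a fixed anchor-drug dose, or a single drug was given alone, by pin tool to lung cancer cell lines in 1536-well plates the day after seeding. Nuclei were stained and counted after 5 days. Relative viability is the nuclei count in treated wells over that in vehicle wells, taken as the median of duplicate plates.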

Compound in experiment [2]: O=C(CCCCCCNC(=O)c1cnc(N(c2ccccc2)c2ccccc2)nc1)NO [Ricolinostat] + Cc1nc(NC(=O)N2CCC[C@H]2C(N)=O)sc1-c1ccnc(C(C)(C)C(F)(F)F)c1 [Alpelisib] (partner 2 µM)
The essentials: as §1

Compound in experiment [3]: CC1=CN2C(=O)C=C(N=C2C(=C1)C(C)NC3=CC=CC=C3)N4CCOCC4 [TGX 221] + Cc1nc(NC(=O)N2CCC[C@H]2C(N)=O)sc1-c1ccnc(C(C)(C)C(F)(F)F)c1 [Alpelisib] (partner 2 µM)
Put shortly: as §1

Compound in experiment [4]: CC1=CN2C(=O)C=C(N=C2C(=C1)C(C)NC3=CC=CC=C3)N4CCOCC4 [TGX 221] + C[C@@H](Oc1cc(-c2cnn(C3CCNCC3)c2)cnc1N)c1c(Cl)ccc(F)c1Cl [Crizotinib] (partner 1 µM)
The essentials: as §1

As for SK-MES-1, the relative viability in experiment [1] (first compound 0.08 µM) was 0.863; in experiment [1] (first compound 0.253 µM), 0.985; in experiment [1] (first compound 0.8 µM) it was 0.96; in experiment [1] (first compound 2.53 µM), 0.782; in experiment [1] (first compound 8 µM), 0.675; in experiment [2] (first compound 0.08 µM), 0.541. In addition, the relative viability was 0.761 in experiment [2] (first compound 0.253 µM); 0.805 in experiment [2] (first compound 0.8 µM); 0.591 in experiment [2] (first compound 2.53 µM); 0.843 in experiment [3] (first compound 0.08 µM); 0.628 in experiment [3] (first compound 0.253 µM); 0.785 in experiment [3] (first compound 0.8 µM). Moreover, the relative viability in experiment [3] (first compound 2.53 µM) came out at 0.549; in experiment [3] (first compound 8 µM), 0.476; in experiment [4] (first compound 0.08 µM), 1.05; in experiment [4] (first compound 0.253 µM) it was 0.982; in experiment [4] (first compound 0.8 µM) it was 0.998; in experiment [4] (first compound 2.53 µM), 0.841. Moreover, in experiment [4] (first compound 8 µM), the relative viability came out at 0.582.
For the cell line HCC-827, the relative viability in experiment [1] (first compound 0.08 µM) is 1.09; in experiment [1] (first compound 0.253 µM), 1.01; in experiment [1] (first compound 0.8 µM), 0.993; in experiment [1] (first compound 2.53 µM) it was 1.06; in experiment [1] (first compound 8 µM), 1.06; in experiment [2] (first compound 0.08 µM) it was 0.615. Besides, the relative viability came to 0.938 in experiment [2] (first compound 0.253 µM); 0.935 in experiment [2] (first compound 0.8 µM); 0.985 in experiment [2] (first compound 2.53 µM); 0.929 in experiment [3] (first compound 0.08 µM); 0.807 in experiment [3] (first compound 0.253 µM); 0.904 in experiment [3] (first compound 0.8 µM). Besides, the relative viability in experiment [3] (first compound 2.53 µM) worked out at 0.482; in experiment [3] (first compound 8 µM) it was 0.438; in experiment [4] (first compound 0.08 µM), 0.884; in experiment [4] (first compound 0.253 µM), 0.937; in experiment [4] (first compound 0.8 µM), 0.985; in experiment [4] (first compound 2.53 µM), 0.859. Moreover, the relative viability in experiment [4] (first compound 8 µM) is 0.892.
EMC-BAC-2: the relative viability amounted to 0.711 in experiment [1] (first compound 0.08 µM); 0.73 in experiment [1] (first compound 0.253 µM); 0.748 in experiment [1] (first compound 0.8 µM); 0.821 in experiment [1] (first compound 2.53 µM); 0.697 in experiment [1] (first compound 8 µM); 0.644 in experiment [2] (first compound 0.08 µM). Further, the relative viability in experiment [2] (first compound 0.253 µM) was 0.669; in experiment [2] (first compound 0.8 µM) it was 0.768; in experiment [2] (first compound 2.53 µM) it was 0.816; in experiment [3] (first compound 0.08 µM) it was 0.735; in experiment [3] (first compound 0.253 µM), 0.597; in experiment [3] (first compound 0.8 µM), 0.679. Further, the relative viability in experiment [3] (first compound 2.53 µM) amounted to 0.623; in experiment [3] (first compound 8 µM) it was 0.629; in experiment [4] (first compound 0.08 µM), 0.745; in experiment [4] (first compound 0.253 µM) it was 0.706; in experiment [4] (first compound 0.8 µM), 0.746; in experiment [4] (first compound 2.53 µM) it was 0.743. In experiment [4] (first compound 8 µM), the relative viability was found to be 0.569.
For the cell line NCI-H2023, the relative viability in experiment [1] (first compound 0.08 µM) is 0.517; in experiment [1] (first compound 0.253 µM), 0.591; in experiment [1] (first compound 0.8 µM), 0.644; in experiment [1] (first compound 2.53 µM), 0.607; in experiment [1] (first compound 8 µM) it was 0.585; in experiment [2] (first compound 0.08 µM), 0.503. Further, the relative viability in experiment [2] (first compound 0.253 µM) was 0.581; in experiment [2] (first compound 0.8 µM), 0.614; in experiment [2] (first compound 2.53 µM), 0.499; in experiment [3] (first compound 0.08 µM), 0.599; in experiment [3] (first compound 0.253 µM), 0.452; in experiment [3] (first compound 0.8 µM), 0.524. In addition, the relative viability in experiment [3] (first compound 2.53 µM) stood at 0.311; in experiment [3] (first compound 8 µM), 0.268; in experiment [4] (first compound 0.08 µM), 0.594; in experiment [4] (first compound 0.253 µM), 0.532; in experiment [4] (first compound 0.8 µM), 0.689; in experiment [4] (first compound 2.53 µM) it was 0.591. In addition, the relative viability in experiment [4] (first compound 8 µM) was determined as 0.463.
NCI-H1395: the relative viability in experiment [1] (first compound 0.253 µM) came out at 1.17; in experiment [1] (first compound 0.8 µM), 1.16; in experiment [1] (first compound 2.53 µM), 1.09; in experiment [1] (first compound 8 µM), 0.967; in experiment [2] (first compound 0.253 µM), 1.12; in experiment [2] (first compound 0.8 µM), 1.13. The relative viability in experiment [2] (first compound 2.53 µM) was 1.26; in experiment [3] (first compound 0.08 µM) it was 0.935; in experiment [3] (first compound 0.253 µM), 1.16; in experiment [3] (first compound 0.8 µM), 0.89; in experiment [3] (first compound 2.53 µM), 0.514; in experiment [3] (first compound 8 µM), 0.584.
